Assay results taken from ChEMBL document CHEMBL1821691, “Cytotoxic C21 and C22 terpenoid-derived metabolites from the sponge Ircinia sp” (J Nat Prod, 2011).

Tests used:
DLD-1 = experiment: Cytotoxicity against human DLD1 cells by XTT reagent based automated microculture tetrazolium assay; assay type: functional, cell-based
K562 = experiment: Cytotoxicity against human K562 cells by XTT reagent based automated microculture tetrazolium assay; assay type: functional, cell-based
HepG2 = experiment: Cytotoxicity against human HepG2 cells by XTT reagent based automated microculture tetrazolium assay; assay type: functional, cell-based
[1] = Cytotoxicity against human Hep3B cells by XTT reagent based automated microculture tetrazolium assay; assay type: functional, cell-based, Hep 3B2

Row | Structure (SMILES) | IC50 (DLD-1) | IC50 (K562) | IC50 (HepG2) | IC50 [1]
1 | CC(=O)O[C@H](CC/C(C)=C/[C@@H](O)C/C(C)=C/CCc1ccoc1)[C@]1(C)CCC(=O)O1 | 0.03 µM | 5.4 µM | 0.5 µM | 1.1 µM
2 | CC(=O)O[C@H](/C=C(\C)CC[C@@H](O)[C@]1(C)CCC(=O)O1)C/C(C)=C/CCc1ccoc1 | 0.2 µM | 9.6 µM | 2.2 µM | 10.6 µM
3 | C/C(=C\[C@@H](O)C/C(C)=C/CCc1ccoc1)CC[C@@H](O)[C@]1(C)CCC(=O)O1 [IRCIFORMONIN B] | 0.04 µM | 7.8 µM | 1 µM | 6.4 µM
4 | CC(=O)O[C@H](/C=C(\C)CC[C@@H](OC(C)=O)[C@]1(C)CCC(=O)O1)C/C(C)=C/CCc1ccoc1 [IRCIFORMONIN F] | 0.6 µM | 10.2 µM | 1.7 µM | 7 µM
5 | C/C(=C\[C@@H](O)C/C(C)=C/CCCC(=O)CO)CC[C@@H](O)[C@]1(C)CCC(=O)O1 [IRCINOLIN A] | > 20 µM | > 20 µM | > 20 µM | > 20 µM
